Measurements reported in patent US11518823B2, “Photoinitiators for light-curable compositions” (priority 2017, dated 2022).
Values joined by “and” are separate entries in the source; they are usually repeats but may differ in a detail not shown here. Identical values can stand only once. Blank lines part the entries; values can stand above or below the compound they belong to.

Experiments:
[1] = photo-DSC monitoring of photopolymerization in hexanediol diacrylate
Experimental: (§1) In the following examples, of the inventive use of compounds of formula (I) as photo-initiators, reaction mixtures containing the respective photoinitiator, the specified liquid monomer and optionally a specified co-intiator were produced and cured for 10 min under a nitrogen atmosphere by exposure to an OmniCure® S2000 mercury lamp having a wave length filter of 320 to 500 nm and an UV light intensity of 1 W/cm^2, while the progress of the reactions was monitored by photo-DSC type NETSCH DSC 204 F1 Phoenix.
(§2) All measurements were carried out at least twice, the respective tables showing the average values for the respective initiators.
(§3) In the tables, RP represents the polymerization rate and is thus an indicator of the reactivity of a system. A high value means that many monomer groups are reacted at the same time and that the curing process is generally shorter. tmax is the time (in s) it takes until maximum heat development is reached and is thus an indicator of how long it takes to reach the gelling point and thus a certain initial solidity. Short times are thus more desirable. t95% is the time (in s) after which 95% of the entire reaction heat have been released and is thus an indicator of the rate at which a reaction occurs, lower values again being advantageous. DBC is the double bond conversion rate calculated based on the reaction heat released during polymerization (in J per g) of the respective formulation. For the conversion rate, it is desirable to achieve values that are as high as possible.
(§4) In all formulations, the respective photoinitiator was used in an equimolar amount with respect to 1 wt % of ethyl pyruvate (1), which was the initiator having the lowest molecular weight, and weighed in accordingly, and co-initiators, if contained, were weighed in equimolar amounts with respect to the respective initiator. Subsequently, 12±0.5 mg of the reaction mixtures were weighed into DSC aluminum pans, and the pans were covered with cover glasses.

[2] = photo-DSC monitoring of photopolymerization in dental dimethacrylate mixture
Experimental: All measurements were carried out at least twice, the respective tables showing the average values for the respective initiators. In the tables, RP represents the polymerization rate and is thus an indicator of the reactivity of a system. A high value means that many monomer groups are reacted at the same time and that the curing process is generally shorter. tmax is the time (in s) it takes until maximum heat development is reached and is thus an indicator of how long it takes to reach the gelling point and thus a certain initial solidity. Short times are thus more desirable. t95% is the time (in s) after which 95% of the entire reaction heat have been released and is thus an indicator of the rate at which a reaction occurs, lower values again being advantageous. DBC is the double bond conversion rate calculated based on the reaction heat released during polymerization (in J per g) of the respective formulation. For the conversion rate, it is desirable to achieve values that are as high as possible. In all formulations, the respective photoinitiator was used in an equimolar amount with respect to 1 wt % of ethyl pyruvate (1), which was the initiator having the lowest molecular weight, and weighed in accordingly, and co-initiators, if contained, were weighed in equimolar amounts with respect to the respective initiator. […] In this group of experiments, the experiments from Examples 1 to 4 and Comparative Example 1 were repeated, using a di-methacrylate mixture from the field of dental engineering as a monomer instead of the diacrylate that had been used above.

[3] = photo-DSC monitoring of photopolymerization in divinyl adipate; conditions: monomer DVA, co-initiator DMAB
Experimental: In the following examples, of the inventive use of compounds of formula (I) as photo-initiators, reaction mixtures containing the respective photoinitiator, the specified liquid monomer and optionally a specified co-intiator were produced and cured for 10 min under a nitrogen atmosphere by exposure to an OmniCure® S2000 mercury lamp having a wave length filter of 320 to 500 nm and an UV light intensity of 1 W/cm^2, while the progress of the reactions was monitored by photo-DSC type […]1 Phoenix. All measurements were carried out at least twice, the respective tables showing the average values for the respective initiators. In the tables, RP represents the polymerization rate and is thus an indicator of the reactivity of a system. A high value means that many monomer groups are reacted at the same time and that the curing process is generally shorter. tmax is the time (in s) it takes until maximum heat development is reached and is thus an indicator of how long it takes to reach the gelling point and thus a certain initial solidity. Short times are thus more desirable. t95% is the time (in s) after which 95% of the entire reaction heat have been released and is thus an indicator of the rate at which a reaction occurs, lower values again being advantageous. DBC is the double bond conversion rate calculated based on the reaction heat released during polymerization (in J per g) of the respective formulation. For the conversion rate, it is desirable to achieve values that are as high as possible. In all formulations, the respective photoinitiator was used in an equimolar amount with respect to 1 wt % of ethyl pyruvate (1), which was the initiator having the lowest molecular weight, and weighed in accordingly, and co-initiators, if contained, were weighed in equimolar amounts with respect to the respective initiator. Subsequently, 12±0.5 mg of the reaction mixtures were weighed into DSC aluminum pans, and the pans were covered with cover glasses.

[4] = curing test in silicone mold, Intelli-Ray 400 W UV oven; conditions: 1 g HDDA with 1 wt % initiator, 100% power, after a few seconds
[5] = photo-DSC of hydrogel formulation with PEG700DA and 50 wt % water
Experimental: as §1, §2, §3, §4
(§5) PBQ was used as a commercially available reference initiator, with MDEA as a co-initiator. The ketoesters ethyl pyruvate (1) and dimethylfurandione (8) can be used as novel initiators without any co-initiator. Due to its longwave absorption maximum (λmax=378 nm instead of 330 nm for compound (1)), compound (8) can also be used using visible light which is harmless for cells.

[6] = longwave absorption maximum; format: physicochemical
From the text: as §5

[7] = test system: mouse fibroblast cell line L929; format: cell-based
From the text: This may constitute an additional advantage for biological applications in which hydrogels are commonly used.

[8] = monomer HDDA, co-initiator shown only as drawing (Table 11)
[9] = monomer HDDA, co-initiator shown only as drawing, reference is benzophenone/amine system (Table 11)
[10] = dental formulation DDM, co-initiator DMAB (Table 12)
[11] = monomer HDDA, co-initiator DMAB
[12] = monomer DDM, co-initiator DMAB (Table 7)
[13] = monomer HDDA, type I initiators, without any co-initiators (Table 5)
[14] = monomer HDDA, type I, without any co-initiators
[15] = monomer HDDA, co-initiator MDEA
[16] = monomer HDDA, co-initiator thiol
[17] = monomer HDDA, no co-initiator listed (Table 3)
[18] = acrylate (HDDA), co-initiator (Table 10, C8)
[19] = monomer HDDA, co-initiator shown only as drawing (Table 13)
[20] = methacrylates, co-initiator DMAB (Table 10)
[21] = HDDA, without any co-initiator (Table 10)

Structure (SMILES): C=C(C)C(=O)OCCOC(=O)CCC(=O)C(=O)OCCOC(=O)C(=C)C [Compound 11, α-Ketoglutaric Acid di(hydroxyethylmethacrylate) Ester]
DBC [1, 8]: 64%
t95% [1, 8]: 53 s
RP (polymerization rate) [1, 9]: 203 mmol/L/s
DBC [2, 10]: 52%
RP (polymerization rate) [2, 10]: 57 mmol/L/s
t95% [2, 10]: 93 s

Structure (SMILES): CCC(=O)C(=O)OC [Compound 2, 2-oxobutanoic Acid Methyl Ester]
DBC (double bond conversion) [1, 11]: 60.9%
RP (polymerization rate) [1, 11]: 204 mmol/L/s
t95% (time after which 95% of reaction heat released) [1, 11]: 40.5 s
DBC [2, 12]: 57%
RP (polymerization rate) [2, 12]: 71.2 mmol/L/s
t95% [2, 12]: 85.5 s

Structure (SMILES): CC(C)(Br)C(=O)c1ccccc1 [BD, 2-bromo-2-methyl-1-phenylpropan-1-one, reference compound]
RP (polymerization rate) [1, 13]: 146 mmol/L/s
DBC [1, 14]: 57.6%
t95% [1, 14]: 62.5 s

Structure (SMILES): CCOC(=O)CCC(=O)C(=O)OCC [Compound 9, α-Ketoglutaric Acid Diethyl Ester]
DBC [1, 8]: 67%
t95% [1, 8]: 58 s
RP (polymerization rate) [1, 9]: 201 mmol/L/s
DBC [2, 10]: 53%
RP (polymerization rate) [2, 10]: 66 mmol/L/s
t95% [2, 10]: 85 s

Structure (SMILES): CCOC(=O)C(=O)C(C)C [Compound 3, 2-oxo-3-Methylbutanoic Acid Ethyl Ester]
DBC (double bond conversion) [1, 11]: 65.8%
t95% (time after which 95% of reaction heat released) [1, 11]: 36.6 s
RP (polymerization rate) ([1]; monomer HDDA, co-initiator DMAB, listed as E3): 241 mmol/L/s and 241.0 mmol/L/s
DBC [1, 15]: 65.2%
RP (polymerization rate) [1, 15]: 228 mmol/L/s
t95% [1, 15]: 56.5 s
RP (polymerization rate) ([1]; monomer HDDA, co-initiator pentaerythritol-tetrakis(3-mercaptopropionate) (thiol)): 233.5 mmol/L/s
DBC [1, 16]: 68.0%
t95% [1, 16]: 45.0 s
DBC [2, 12]: 57%
RP (polymerization rate) [2, 12]: 81.5 mmol/L/s
t95% [2, 12]: 58.5 s

Structure (SMILES): CCOC(=O)C(=O)c1ccccc1 [PGO, Ethyl Phenylglyoxylate, reference compound]
DBC [1, 17]: 75.1%
RP (polymerization rate) [1, 17]: 204 mmol/L/s
t95% [1, 17]: 63.0 s

Structure (SMILES): CCOC(=O)C(=O)C(C)(C)Br [Compound 5, 3-bromo-3-methyl-2-oxobutanoic Acid Ethyl Ester]
RP (polymerization rate) [1, 13]: 239 mmol/L/s
DBC [1, 14]: 62.1%
t95% [1, 14]: 40.0 s

Structure (SMILES): CCOC(=O)C(=O)C(C)(C)O [Compound E5]
DBC (double bond conversion) [1, 11]: 63.1%
RP (polymerization rate) [1, 11]: 218 mmol/L/s
t95% (time after which 95% of reaction heat released) [1, 11]: 73.0 s

Structure (SMILES): O=C(c1ccccc1)c1ccccc1 [BP, Benzophenone, reference compound]
DBC [1, 18]: 69%
RP (polymerization rate) [1, 18]: 93 mmol/L/s
t95% [1, 18]: 69 s
DBC (double bond conversion) [1, 11]: 68.9%
RP (polymerization rate) [1, 11]: 96 mmol/L/s
t95% (time after which 95% of reaction heat released) [1, 11]: 85.5 s
DBC [1, 15]: 69.3%
RP (polymerization rate) [1, 15]: 109 mmol/L/s
t95% [1, 15]: 77.0 s
DBC [1, 8]: 69%
t95% [1, 8]: 69 s
DBC [1, 19]: 69%
RP (polymerization rate) [1, 19]: 93 mmol/L/s
t95% [1, 19]: 69 s
RP (polymerization rate) [1, 9]: 93 mmol/L/s
DBC [2, 10]: 49%
RP (polymerization rate) [2, 10]: 21 mmol/L/s
t95% [2, 10]: 143 s
DBC [2, 20]: 49%
RP (polymerization rate) [2, 20]: 21 mmol/L/s
t95% [2, 20]: 143 s
DBC [2, 12]: 50%
RP (polymerization rate) [2, 12]: 21.4 mmol/L/s
t95% [2, 12]: 146.5 s
Area [3]: 642 J/g
DSC [3]: 4.37 mW · mg^−1

Structure (SMILES): COC(=O)C(=O)C(C)(C)C [Compound 4, 2-oxo-3,3-dimethylbutanoic Acid Methyl Ester]
DBC (double bond conversion) [1, 11]: 59.1%
RP (polymerization rate) [1, 11]: 170 mmol/L/s
t95% (time after which 95% of reaction heat released) [1, 11]: 42.5 s
DBC [1, 15]: 64.6%
RP (polymerization rate) [1, 15]: 234 mmol/L/s
t95% [1, 15]: 41.0 s
DBC [1, 17]: 64.6%
RP (polymerization rate) [1, 17]: 214 mmol/L/s
t95% [1, 17]: 53.5 s
DBC [2, 12]: 51%
RP (polymerization rate) [2, 12]: 55.9 mmol/L/s
t95% [2, 12]: 69.5 s

Structure (SMILES): CC(=O)C(=O)OCCN(C)C [Compound 10, N,N′-dimethylaminopyruvate]
result of curing test [4]: transparent, hard sample rod was obtained

longwave absorption maximum λmax [6]: 330 nm
Structure (SMILES): CCOC(=O)C(C)=O [Compound 1, 2-Oxopropanoic Acid Ethyl Ester]
DBC (double bond conversion) [1, 11]: 66.5%
RP (polymerization rate) [1, 11]: 230 mmol/L/s
t95% (time after which 95% of reaction heat released) [1, 11]: 41.7 s
DBC [1, 17]: 69.3%
RP (polymerization rate) [1, 17]: 210 mmol/L/s
t95% [1, 17]: 56.0 s
DBC [2, 12]: 57%
RP (polymerization rate) [2, 12]: 74.5 mmol/L/s
t95% [2, 12]: 83.0 s
Area [3]: 466 J/g
DSC [3]: 1.7 mW · mg^−1
DBC ([5]; without co-initiator): 48%
RP (polymerization rate) ([5]; without co-initiator): 33 mmol/L/s
t95% ([5]; without co-initiator): 83 s

Structure (SMILES): CN(C)CC(O)COc1ccc(C(=O)c2ccccc2)cc1.Cl (centres unmarked) [BPQ, 3-(4-benzoylphenoxy)-2-hydroxy-N,N-dimethylpropane-1-amine Hydrochloride, reference compound]
DBC ([5]; co-initiator MDEA): 50%
RP (polymerization rate) ([5]; co-initiator MDEA): 30 mmol/L/s
t95% ([5]; co-initiator MDEA): 87 s
concentration at which significant toxic effects were observed [7]: 8000 µM

longwave absorption maximum λmax [6]: 378 nm
Structure (SMILES): CC1(C)COC(=O)C1=O [Compound 8, 4,4-dimethyldihydrofuran-2,3-dione]
DBC [1, 21]: 66%
RP (polymerization rate) [1, 21]: 189 mmol/L/s
t95% [1, 21]: 58 s
DBC [2, 20]: 54%
RP (polymerization rate) [2, 20]: 52 mmol/L/s
t95% [2, 20]: 90 s
DBC ([5]; without co-initiator): 56%
RP (polymerization rate) ([5]; without co-initiator): 26 mmol/L/s
t95% ([5]; without co-initiator): 78 s
